Measured values taken from patent US4374149A, “α-{[(Arylalkyl)amino]alkyl}-4-hydroxy-3-(lower-alkylsul finyl)benzenemethanols” (Sterling Drug Inc., priority 1978, dated 1983).

Legend:
isolated cat atria = assay: Cardiotonic test procedure I, isolated cat atria; conditions: for Increase in right atrial force / Increase in right atrial rate: in vitro
Procedure: The efficacy of this compound was judged, in vitro, on the basis of percent increase in contractile force in isolated cat atria and papillary muscle and, in vitro, on the basis of percent increase in cardiac contractile force in the intact anesthetized dog. Male cats weighing from 0.8 to 1.5 kg. were anesthetized with α-chloralose (80 mg./kg. i.p.). The chest was opened, the heart excised and the two atria dissected. A silk suture was tied to each of two opposite sides of the right atrium. One side of the atrium was tied to a glass rod and then mounted in a 50 ml. organ bath filled with Tyrode's solution. […] The transducer was then connected to a Grass polygraph and the force and rate of atrial contraction was recorded continuously. The left atrium was treated similarly using silver wire instead of silk sutures. The silver wire also served as a stimulating electrode. Both atria were mounted in the same bath. The right atrium was beating spontaneously due to the presence of the sinoatrial node, while the left atrium was stimulated electrically at a rate of 3 beats/sec. by suprathreshold rectangular pulses of 5 millisecond duration. The Tyrode's solution bathing the atria was of the following composition (in mM): NaCl 136.87, KCl 5.36, NaH2 PO4 0.41, CaCl2 1.80, MgCl2 6H2 O 1.05, NaHCO3 11.90, glucose 5.55 and EDTA 0.04. […] The preparation was left to equilibrate for one hour before any drug was added. The bathing fluid was changed 3 to 4 times during the equilibration time. At the end of equilibration period, the drug dissolved in a vehicle or the vehicle alone was added to the tissue bath and the full response recorded. The vehicle used was Tyrode' s solution to which, if required, sufficient acid was added to cause solution of the drug. […] Generally, a dose response study of at least 3 doses was done in the same preparation.

papillary muscle = assay: Cardiotonic test procedure IB, isolated cat papillary muscle; conditions: in vitro
Procedure: The efficacy of this compound was judged, in vitro, on the basis of percent increase in contractile force in isolated cat atria and papillary muscle and, in vitro, on the basis of percent increase in cardiac contractile force in the intact anesthetized dog. Male cats 0.8 to 1.5 kg. were anethetized with α-chloralose (80 mg./kg. i.p.). The chest was opened and the heart excised. The heart was dipped and shaken in Tyrode's solution for the removal of blood from the cavities. The right ventricle was then slit open and the small and thin (about 1 mm. in diameter and 4 to 7 mm. in length) papillary muscles were dissected out. A silver wire was attached to each of the two ends of the papillary muscle. The ventricular end was attached to a platinum electrode and mounted in a tissue bath containing Tyrode's solution described above. The silver wire on the valvular end of the muscle was attached to a force displacement transducer for the measurement of the force and rate of muscle contraction. The muscle was stimulated at a rate of 3 beats/sec. by suprathreshold rectangular pulses of 5 millisecond duration. The rest of the procedure was continued as described above.

systolic blood pressure = assay: Antihypertensive activity, reduction in systolic blood pressure, single oral medication, unanesthetized spontaneous hypertensive rat; type: in vivo; conditions: P.O., single dose, unanesthetized SH rat
Procedure: Antihypertensive activity was determined on the basis of the observed reduction in systolic blood pressure measured according to the method of H. Kersten et al., J. Lab. and Clin. Med. 32, 1090 (1947) following a single oral medication in the unanesthetized spontaneous hypertensive rat described by Okamato et al., Japan Circulation J. 27, 282 (1963).
^a AHD40 = single oral dose required to induce a 40 mm. average

β-adrenergic = β-adrenergic blocking activity, inhibition of isoproterenol-elicited heart rate increase in pentobarbitalized dog; type: in vivo; conditions: i.v.
Procedure: The β-adrenergic blocking activity was determined in the pentobarbitalized dog as judged by the ability of the test compound to inhibit the elevation in heart rate elicited by a 0.5 mcg./kg. i.v. injection of isoproterenol.
^e AED50 = approximate intravenous dose required to cause 50%

[1] = tested on: cardiac contractile force; assay: Cardiotonic test procedure II, intact anesthetized dog; type: in vivo, mongrel dogs
Procedure: The efficacy of this compound was judged, in vitro, on the basis of percent increase in contractile force in isolated cat atria and papillary muscle and, in vitro, on the basis of percent increase in cardiac contractile force in the intact anesthetized dog. The in vivo test procedure used is described as follows: Mongrel dogs of both sexes and varying in weight from 9 to 15 kg. were anesthetized with 30 mg./kg. pentobarbital sodium administered intravenously. The trachea was exposed and cannulated. The tracheal cannula was then attached to a Harvard respiratory pump using room air. The right femoral artery and vein were cannulated. […] The venous cannula was used for the intravenous administration of drugs. Pin electrodes were attached to the right forelimb and left hindlimb. The electrodes were then connected to a Grass polygraph for the continuous recording of the standard limb lead II electrocardiogram. A ventro-dorsal incision at the third inter-costal space was made, the ribs laterally retracted and the pericardium slit open to expose the myocardium. The base of the aorta was dissected and a flow probe was fitted around it. The flow probe was attached to a square wave electromagnetic flowmeter (Carolina Medical Electronics). The flowmeter was then connected to a Grass polygraph for the continuous recording of aortic blood flow. This flow was used as an index of cardiac output (actual cardiac output is aortic blood flow+coronary blood flow). Cardiac contractile force was measured by suturing a Walton-Brodie strain gauge to the wall of the right ventricle. At the end of the surgical procedure, the animal was left to rest and equilibrate for one hour with continuous recording of blood pressure, EKG, cardiac contractile force and aortic blood flow. After the equilibration period, the vehicle or the drug dissolved in the vehicle was administered by intravenous infusion (i.v. inf.), intravenous bolus (i.v. bol.) or intraduodenally (i.d.) and the response of all the parameters measured to drug administration was recorded continuously for different periods of times depending on the route of drug administration. When the route of administration was i.v. inf., the drug was administered until a peak effect was reached and infusion was then maintained for ten minutes. The above-described test systems were standardized using dopamine.

arrhythmia = assay: Antiarrhythmic activity (in words, test not specified); conditions: in vivo
Procedure: The test procedures were carried out as follows.

blood pressure = assay: Antihypertensive activity, sustained lowering of blood pressure, repeated oral medication, unanesthetized trained renal hypertensive dog; type: in vivo
Source text: Antihypertensive activity was also judged on the basis of sustained reduction of blood pressure observed in the unanesthetized trained renal hypertensive dog following repeated oral medication according to the procedure described by Lape et al., Arch.
^b MED10 = minimum repeated oral daily dose required to effect a

**Q.** With COc1ccc(CCC(C)NCC(=O)c2ccc(O)c([S+](C)[O-])c2)cc1.Cl (stereo not shown) [Example 26B, 4'-hydroxy-2-[3-(4-methoxyphenyl)-1-methylpropyl]amino-3'-(methylsulfinyl)-acetophenone hydrochloride] as the molecule, how does the “Increase in right atrial force” value (isolated cat atria; 10 /ml.) read?
**A.** Its value is 1%.

**Q.** And the “Increase in right atrial rate” value (isolated cat atria; 10 /ml.)?
**A.** The value was 0%.

**Q.** And the “Increase in right atrial force” value (isolated cat atria; 30 /ml.)?
**A.** The value was 5%.

**Q.** What about the “Increase in right atrial rate” value (isolated cat atria; 30 /ml.) of the same molecule?
**A.** Its value is 3%.

**Q.** What about the “Increase in right atrial force” value (isolated cat atria; 100 /ml.) of the same molecule?
**A.** Its value is 6%.

**Q.** What about the “Increase in right atrial rate” value (isolated cat atria; 100 /ml.) of the same molecule?
**A.** Its value is 8%.

**Q.** And the “Cardiotonic activity (in words)” value (isolated cat atria; one or more of the cardiotonic test procedures)?
**A.** The value was “cardiotonic activity”.

**Q.** What about the “Increase in papillary muscle force” value (papillary muscle; 10 /ml.) of the same molecule?
**A.** The value was 7%.

**Q.** What about the “Increase in papillary muscle force” value (papillary muscle; 30 /ml.) of the same molecule?
**A.** The value was 23%.

**Q.** And the “Increase in papillary muscle force” value (papillary muscle; 100 /ml.)?
**A.** Its value is 38%.

**Q.** And the “Antihypertensive activity SH Rat AHD40 (single oral dose required to induce a 40 mm. average reduction in systolic blood pressure)” value (systolic blood pressure)?
**A.** The value was “ca. 40.0 mg./kg”.

**Q.** And the “Actual percentage inhibition of heart rate increase above control level observed at the indicated dose” value (β-adrenergic; 1.0 mg./kg.)?
**A.** The value was 18%.

**Q.** What about the “Dog β-blockade AED50 (approximate intravenous dose for 50% inhibition of isoproterenol-elicited heart rate increase)” value (β-adrenergic; pentobarbitalized dog) of the same molecule?
**A.** Its value is > 1.0 mg/kg.

**Q.** What about the “Increase in cardiac contractile force” value ([1]; 1.0 mg./kg., first series) of the same molecule?
**A.** The value was 22%.

**Q.** What about the “Increase in cardiac contractile force” value ([1]; 1.0 mg./kg., second, similar series) of the same molecule?
**A.** The value was 4%.

**Q.** And the “Increase in cardiac contractile force” value ([1]; 3.0 mg./kg., first series)?
**A.** Its value is 25%.

**Q.** What about the “Increase in cardiac contractile force” value ([1]; 3.0 mg./kg., second, similar series) of the same molecule?
**A.** Its value is 12%.

**Q.** What about the “Increase in cardiac contractile force” value ([1]; 10.0 mg./kg., first series) of the same molecule?
**A.** Its value is 59%.

**Q.** And the “Increase in cardiac contractile force” value ([1]; 10.0 mg./kg., second, similar series)?
**A.** The value was 50%.

**Q.** And the “Antiarrhythmic activity (in words)” value (arrhythmia)?
**A.** The value was “antiarrhythmic activity”.

**Q.** And the “Renal Hypertensive Dog MED10 (minimum repeated oral daily dose for sustained lowering of blood pressure of 10% or greater)” value (blood pressure; administered once per day)?
**A.** The value was > 20 mg/kg.

**Q.** And the “Actual percentage reduction in blood pressure observed at the indicated dose” value (blood pressure; once per day, 20 mg./kg.)?
**A.** The value was 0.
